Measurements published in patent US20240150705A1, “POLYPHENOL INFUSED PROBIOTICS AND METHODS FOR IMPROVED GUT SURVIVABILITY, PERSISTENCE AND COLONIZATION” (THE REGENTS OF THE UNIVERSITY OF CALIFORNIA, priority 2021, published 2024).
Entries after “also recorded” stand apart in the source; their conditions may differ.

Columns and labels:
Type in all cases: cell-based
[1] = system: L. casei, L. paracasei and L. rhamnosus cells; assay: metabolic activity by resazurin fluorescence assay after simulated gastric fluid; conditions: infused L. casei cells, SGF
Procedure: For this assay, 6 log CFUs/ml of cells (with and without infused phenolic actives) in selective culture media was prepared. 1 mL of each of the samples were added to a flat bottom 24 well culture plates and 50 μM of resazurin was added to each well plates. Plates were sealed with PCR sealing films inside anerobic cabinet to maintain in-situ anaerobic conditions and were immediately incubated at 37° C. for 16 h. Fluorescence data was collected each 5 min at 580 nm (λex=530 nm). The reduction of resazurin was evaluated by the assay. After cells were treated with simulated gastric fluid, 1 mL of each samples was centrifugated (16,000×g for 2 min) and resuspended in 1 mL of MRS broth containing 50 μM of resazurin. Then, plate was incubated at 37° C. for 16 h and read each 5 min (530 nm/580 nm). […] The reduction of resazurin to resorufin (fluorescent form) was measured to correlate with the metabolic activity of three types of probiotic cells with different infused polyphenols and conditions, as shown in FIG. 7 through FIG. 20. The production of resorufin increases the intensity of fluorescence, while the reduction of the peak is related with the production of hydroresorufin.

[2] = system: L. paracasei (LP), Lactobacillus casei (LC) and L. rhamnosus (LR) probiotic cells; assay: survivability during simulated gastrointestinal treatments (SGF 2 h, then SIF 2 h); conditions: for Stability of probiotics against gastric pH and bile salt tolerance: infusion in cells
Procedure: To illustrate the role of phenolic bioactives in influencing cell viability, changes in the intracellular pH and interactions of bile salts with cells were measured after simulated gastric and intestinal treatments respectively. Survivability of cells with and without infused plant extracts were evaluated during simulated gastrointestinal treatments under anaerobic conditions. Simulated gastric fluids (SGF, pH=3) were prepared by adding 0.5% w/v sodium chloride, hydrochloric acid to maintain pH and 3.2 mg/ml pepsin. 1 g of selected bacterial cells with and without infused plant extracts were separately incubated in SGF for 2 h at 37° C. and 100 rpm. After gastric treatment, the cells were pelleted down by centrifuging at 5000 rpm for 2 min and then resuspended in the simulated intestinal fluids (SIF) containing 3.33 mg/mL calcium chloride, 5 g/L sodium chloride, 10 mM bile salts and pancreatin (100 U/ml) in 0.025 M potassium phosphate buffer (pH=7). Digestion mixtures were incubated at 37° C. and 100 rpm for 2 h. After the simulated gastric and intestinal digestions, both the phenolic infused cells and control cells were isolated by centrifuging at 5000 rpm for 2 min and will be washed three times with autoclaved 1×PBS. Viable cells were enumerated after serial dilutions on selective media plates. The viability of cells were measured in triplicates and the results of these measurements were averaged. Live probiotic cells must reach the colon alive for colonization and related health benefits. These figures plot survivability of L. paracasei (LP), Lactobacillus casei (LC) and L. rhamnosus (LR) probiotic cells with and without infused plant extracts during simulated gastrointestinal treatments with simulated gastric fluid (SGF) for 2 h, followed by the treatment with simulated intestinal fluid (SIF) for next 2 h.

[3] = system: L. casei cells; assay: survivability of model probiotic L. casei cells loaded with other polyphenols or mixed with catechin during simulated digestion (FIG. 6); conditions: for survivability of probiotic bacteria during simulated gastro-intestinal digestion: L. casei cells infused
Procedure: To illustrate the role of phenolic bioactives in influencing cell viability, changes in the intracellular pH and interactions of bile salts with cells were measured after simulated gastric and intestinal treatments respectively. Survivability of cells with and without infused plant extracts were evaluated during simulated gastrointestinal treatments under anaerobic conditions. Simulated gastric fluids (SGF, pH=3) were prepared by adding 0.5% w/v sodium chloride, hydrochloric acid to maintain pH and 3.2 mg/ml pepsin. 1 g of selected bacterial cells with and without infused plant extracts were separately incubated in SGF for 2 h at 37° C. and 100 rpm.
After gastric treatment, the cells were pelleted down by centrifuging at 5000 rpm for 2 min and then resuspended in the simulated intestinal fluids (SIF) containing 3.33 mg/mL calcium chloride, 5 g/L sodium chloride, 10 mM bile salts and pancreatin (100 U/ml) in 0.025 M potassium phosphate buffer (pH=7). Digestion mixtures were incubated at 37° C. and 100 rpm for 2 h. After the simulated gastric and intestinal digestions, both the phenolic infused cells and control cells were isolated by centrifuging at 5000 rpm for 2 min and will be washed three times with autoclaved 1×PBS. Viable cells were enumerated after serial dilutions on selective media plates. The viability of cells were measured in triplicates and the results of these measurements were averaged.
Survivability of probiotic cells was not improved if polyphenols were not infused in cells but only added in the same amount to the gastric fluid.

Compound: COc1cc(/C=C/C(=O)CC(=O)/C=C/c2ccc(O)c(OC)c2)ccc1O [curcumin]
- metabolic activity after simulated gastric treatment [1]: further suppressed
- Stability of probiotics against gastric pH and bile salt tolerance [2]: enhanced
- survivability of probiotic bacteria during simulated gastro-intestinal digestion [3]: Enhanced stability; also recorded: significantly enhance survivability

Compound: O=c1c(O)c(-c2ccc(O)c(O)c2)oc2cc(O)ccc12 [fisetin]
- Stability of probiotics against gastric pH and bile salt tolerance [2]: enhanced
- survivability of probiotic bacteria during simulated gastro-intestinal digestion [3]: Enhanced stability; also recorded: significantly enhance survivability

Compound: catechin
- survivability / stability during simulated gastro-intestinal digestion ([2]; infused cells, SGF then SIF): stable; also recorded: maintained their population
- Stability of probiotics against gastric pH and bile salt tolerance [2]: enhanced
- survivability of probiotic bacteria during simulated digestion ([3]; simply mixed with cells or added to gastric fluid, not infused): no significant improvement in survivability
